# Measurements published in US5140023A, “Azatetracycle compounds” (G. D. Searle & Co., priority 1991, dated 1992).
# Where a name gives a salt, the structure may show the parent alone.
# Experiments:
# gastric emptying = assay: Rat gastric emptying of a test meal (prokinetic activity); format: in vivo, rat (male Charles River, Crl: COBS, CD (SD) BR); conditions: 30 min before test meal, rats sacrificed 60 min after meal
# Source text: Alternatively, the compounds of formula I wherein p is 1, A is NH and B is NH or 0 can be prepared by treating ArNH2 (37) with compounds of formula 38 (an isocyanate or activated carbonyl derivative of azatetracycles 11, 26, 32 or 35). L1 is as described above. […] Prokinetic activity of a compound can be determined by measuring the enhancement of gastric emptying of a meal in a rat model to which the compound has been administered. This method for determining prokinetic activity of a compound has been described by Droppleman, et al, J. Pharmacol. and Methods 4: 227-230 (1980).
# A test meal for measuring gastric emptying in rats was prepared. Ten grams of methylcellulose (2% solution=15 centipoises; Aldrich Chemical Company, Milwaukee, Wis.) was added to 200ml of cold water and mixed at 20,000 rpm in a Waring blender to insure dispersion and hydration of the methylcellulose. In addition, two beef bouillon cubes (Wyler's, Columbus, Ohio) dissolved in 100ml of warm water was added to the mixture, followed by 16g of casein (Hammersten, Schwartz/Mann, Orangeburg, N.Y.), 8g of powdered confectioners sugar and 8g of cornstarch. The ingredients were mixed for two minutes at 20,000 rpm and the resultant test meal was refrigerated for 48 hours to allow trapped air to escape. Male Charles River Rats, Crl: COBS, CD (SD) BR Strain, 180-200g body weight, were used in groups of six animals. The animals were food deprived for 24 hours prior to the experiment with access to water ad libitum. The compounds to be evaluated were prepared in a 0.5% aqueous methylcellulose solution. If insoluble, the mixture was homogenized for two minutes at 5500 rpm using a Try R-Stir-R. The compounds were injected intraperitoneally at a volume of 5 ml/kg, 30 minutes before the test meal, (3.0ml/rat i.g.). Control animals received only the vehicle. Sixty minutes after the test meal, the rats were sacrificed by cervical dislocation. The stomachs were removed intact and weighed. The stomachs were kept opened, gently rinsed with tap water, blotted dry with paper towelling, and the empty stomach weighed. The difference between the weight of the full and empty stomach is indicative of the amount of meal remaining in the stomach. The amount of meal remaining in the stomach was subtracted from the weight of 3ml of the test meal to determine the amount of food emptied from the stomach during the test. Weight of the test meal was determined by weighing three samples (3ml) at the beginning and three samples at the end of each experiment and calculating the mean. The mean and standard error of the amount of meal emptied were calculated.
# The results of following the protocol and comparing representative compounds herein to known prokinetic agents, metoclopramide and cisapride, are shown in Table III.
# 5-HT3 = molecular target: T1, 5-HT3 (Canis lupus familiaris, UniProt Q1HHV2); assay: Antiemetic activity against cisplatin-induced emesis in beagle dogs; format: in vivo; conditions: for ED50: dog, iv, i.v. 30 min before and 2 h after cisplatin 3 mg/kg i.v., emetic episodes counted 5 h, read-out: ID50 (50% inhibition of the number of emetic episodes)
# T1 construct: from tissue; host or cells: living beagle dogs (in vivo, i.v. dosing); endogenous receptor
# T1 sequence (Q1HHV2 24-483): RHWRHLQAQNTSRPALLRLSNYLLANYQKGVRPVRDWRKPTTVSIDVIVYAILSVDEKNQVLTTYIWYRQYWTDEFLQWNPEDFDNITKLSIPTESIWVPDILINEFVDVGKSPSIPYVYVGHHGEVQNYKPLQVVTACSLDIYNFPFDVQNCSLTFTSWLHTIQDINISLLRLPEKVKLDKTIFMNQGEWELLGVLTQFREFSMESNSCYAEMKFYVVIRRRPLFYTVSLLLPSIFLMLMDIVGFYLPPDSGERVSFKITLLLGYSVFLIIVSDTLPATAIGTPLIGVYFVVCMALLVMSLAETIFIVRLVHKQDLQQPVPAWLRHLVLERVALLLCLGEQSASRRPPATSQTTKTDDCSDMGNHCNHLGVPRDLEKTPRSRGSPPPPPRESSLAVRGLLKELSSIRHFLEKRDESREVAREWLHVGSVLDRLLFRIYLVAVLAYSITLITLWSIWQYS
# Protocol: 5-HT3 antagonism can be determined in a model of emesis induced by the chemotherapeutic agent cisplatin as described herein.
# Antiemetic activity of test compound against cisplatin was determined in beagle dogs. Dogs are pretreated I.V. with a test compound dissolved in DMSO thirty minutes before administration of cisplatin 3 mg/kg.i.v. with a second dose of compounds given i.v. two hours after cisplatin administration. Emetic episodes are counted for 5 hours following cisplatin administration. The latency for first emesis and the number of emetic episodes for test compounds are compared with results for control treatment (vehicle).
# Per cent inhibition of emesis for each animal is determined by the following formula: [formula] A mean inhibitory dose (ID50) which results in 50% inhibition of the number of emetic episodes is determined.
Compound,% increase in gastric emptying (gastric emptying; 1.0 mg/kg ip),ED50 (5-HT3),% increase in gastric emptying (gastric emptying; 3.0 mg/kg ip),% increase in gastric emptying (gastric emptying; 10.0 mg/kg ip),further results
"COc1cc(N)c(Cl)cc1C(=O)N[C@H]1[C@H]2C[C@@H]3CN(C2)C[C@@H]31 (relative stereo) [Example 12, 2-methoxy-4-amino-5-chloro-N-(hexahydro-1H-2,5B-methano-3aα, 6aα-cyclopenta[c]pyrrol-4α-yl)benzamidehydrochloride]",45.3%,0.03 mg/kg,–,–,% increase in gastric emptying (gastric emptying; 0.001 mg/kg ip): -5.8%; % increase in gastric emptying (gastric emptying; 0.01 mg/kg ip): 2.0%; % increase in gastric emptying (gastric emptying; 0.03 mg/kg ip): 16.4%; % increase in gastric emptying (gastric emptying; 0.1 mg/kg ip): 31.3%; % increase in gastric emptying (gastric emptying; 0.3 mg/kg ip): 32.1%
"Cn1nc(C(=O)N[C@H]2[C@H]3C[C@@H]4CN(C3)C[C@@H]42)c2ccccc21 (relative stereo) [Example 27, (±)-N-(hexahydro-1H-2,5β-methano-3aα,6aα-cyclopenta[c]pyrrol-4α-yl)-1-methyl-1H-indazole-3-carboxamide, hydrochloride]",–,0.1 mg/kg,–,–,"% inhibition (of emesis) (5-HT3; cisplatin 3 mg/kg i.v., printed in parentheses under 0.10 mg/kg iv): 72%"
COc1cc(N)c(Cl)cc1C(=O)NC1CCN2CCCC1C2 (centres unmarked) [BRL-24924],29.8%,0.1 mg/kg,34.2%,35.2%,–
"COc1cc(N)c(Cl)cc1C(=O)NC1CCN(CCCOc2ccc(F)cc2)CC1OC (centres unmarked) [Cisapride, cisapride]",9.8%,0.6 mg/kg,15.4%,25.0%,–
CN1[C@@H]2CC[C@H]1C[C@@H](OC(=O)c1c[nH]c3ccccc13)C2 [ICS 205-930],–,0.01 mg/kg,–,–,–
"CCN(CC)CCNC(=O)c1cc(Cl)c(N)cc1OC [METOCLOPRAMIDE, metoclopramide]",2.6%,–,11.2%,34.1%,–
COc1cc(N)c(Cl)cc1C(=O)NC1CN2CCC1CC2 (centres unmarked) [ZACOPRIDE],11.8%,–,9.3%,18.5%,% increase in gastric emptying (gastric emptying; 0.3 mg/kg ip): 1.4%; % increase in gastric emptying (gastric emptying; 30.0 mg/kg ip): 6.3%
